In this series the test system is other rCYP450s. The experiment in a line: Reaction phenotyping, other rCYP450s of the panel (not given). In kind it is in vitro ADME, human. The protocol:
For FFA and nFFA reaction phenotyping experiments, LC‐MS/MS experiments were performed using an API 4000 QTRAP or QTRAP 5500 mass spectrometer (SCIEX) with positive electrospray ionization. Chromatography was performed using an Atlantis dC18 analytical column (100 × 2.1 mm, 5 µm; Waters Corporation). Mobile phases were 0.2% v/v formic acid in water and 0.2% v/v formic acid in methanol. FFA and nFFA were eluted at a flow rate of 0.5 mL/min with a linear gradient of 40%−95% methanol from 0.20−2.1 min. The mass transitions monitored were 232.0>109.0 for FFA, 204.0>159.0 for nFFA, 348.0>330.0 for 1’‐hydroxymidazolam‐d4 internal standard (FFA reaction phenotyping), and 262.0>244.0 for hydroxybupropion‐d6 internal standard (nFFA reaction phenotyping). Analyst Instrument Control and Data Processing software (v. 1.6.1) was used for collecting and integrating data (SCIEX). Calibration curves ranging from 1.25 µM−0.01 µM were used to quantify nFFA. Relative quantitation was used to approximate the amount of FFA test material used.
Methods used to evaluate the role of CYP450s in the metabolism of FFA have been described.[22], [23], [24] To determine whether FFA and nFFA were substrates for specific CYP450s, either FFA (1 and 10 μM) or nFFA (0.1 and 1 μM) was incubated via a Tecan Liquid Handling System (Tecan Life Sciences, Männedorf, Switzerland) in duplicate with 25 pmol of rCYP1A2, rCYP2B6, rCYP2C8, rCYP2C9, rCYP2C19, rCYP2D6, or rCYP3A4, and incubation at 37°C. The 200‐μL incubation mixtures contained potassium phosphate buffer (50 mM, pH 7.4), MgCl2 (3 mM), and EDTA (1 mM, pH 7.4), and an NADPH‐generating system. Incubations of FFA with control bactosomes and membranes containing human NADPH‐CYP450 oxidoreductase, but not human CYP450 (reductase control), served as negative controls. FFA or nFFA was added to the incubation mixtures in water (1% v/v). […] Supernatant fractions were analyzed by LC‐MS/MS.

Here are results for two compounds from article PMC9124820, “In vitro evaluation of fenfluramine and norfenfluramine as victims of drug interactions” (Pharmacology Research & Perspectives, 2022).

Molecules are shown by their SMILES.

In the case of `CCNC(C)Cc1cccc(C(F)(F)F)c1` (racemic) [FFA, (RS)‐ethyl (α‐methyl‐3‐trifluoromethylphenethyl)amine], the FFA loss (1 μM FFA, rCYP450s other than rCYP2D6, rCYP2C19, rCYP1A2) is under 10%. Moreover, the substrate loss (10 μM FFA, rCYP450s other than rCYP2D6, rCYP2C19, rCYP1A2, rCYP2B6) was under 15%.
With `CC(N)Cc1cccc(C(F)(F)F)c1.Cl` (stereo not drawn) [nFFA, 1‐(3‐(trifluoromethyl)phenyl)propan‐2‐amine hydrochloride], where the note is “nFFA 0.1 μM and 1 μM, enzymes other than rCYP1A2, rCYP2B6, rCYP2C19, rCYP2D6”, the “contribution to nFFA metabolism” value was “smaller contributions”.
